Data on six compounds can be found in patent US20230145729A1, “INDOLE DITERPENE BIOSYNTHESIS” (priority 2020, published 2023).

The subject of series [1] is Porina (Wiseana copularis) larvae. In words: Porina bioassay of purified epoxy-janthitrems (Example 6). Type of series: in vivo. The settings on record: for inhibition of feeding at the highest concentration: highest concentration (10 μg/g wet weight); for Mortality of larvae: data not shown; for average diet consumption with increasing concentration: 1, 2.5, 10 μg/g wet weight, 21 days. As for the experimental part: The porina bioassay was carried out as described in Example 4, with the following variations:
15 replicates were used per treatment;
the age of the larvae at the start of the experiment was 10 weeks;
diet was made weekly and replaced after 4 days within each week;
the average weight of diet consumed by the larvae, larval weight gain/loss (data not shown), and larval mortality (data not shown) was determined;
three concentrations of purified epoxy-janthitrems were used (1, 2.5, 10 μg/g wet weight) instead of four; and
an average daily diet consumption (mg/larva) across the 21 days of the trial was determined.

The subject of series [2] is mice (Swiss, female). In words: Mouse tremor bioassay of purified epoxy-janthitrems (Example 7). To be noted: ip; for peak tremor score (comparison among epoxy-janthitrems): EJ I 13.5, EJ III 17.2, EJ triol 16.2 mg/kg. The series is classed as in vivo. The method, then:
Epoxy-janthitrem I, Epoxy-janthitrem II, Epoxy-janthitrem III, Epoxy-janthitrem IV, and Epoxy-janthitriol, were administered by intraperitoneal injection as DMSO/water solutions (9:1, 50 μL) into mice (Swiss, female, weight 25+3g). Control mice were injected with the solvent alone (data not shown). Groups of four mice were used for each treatment group. All animal manipulations were approved, and tremor score was calculated, as described above in Example 5.
The dosage rates were informed by the experiment described in Example 5 above, with dose rates as follows: epoxy-janthitrem I (EJ I, 13.5 mg/kg), epoxy-janthitrem II (EJ II, 14.2 mg/kg), epoxy-janthitrem III (EJ III, 17.2 mg/kg), epoxy-janthitrem IV (EJ IV, 16.5 mg/kg), epoxy-janthitriol (EJ triol, 16.2 mg/kg). Tremors were measured regularly until the mice had completely recovered.

For series [3], the system named is mice (Swiss, female). In words: Mouse tremor bioassay (Example 5). The series is classed as in vivo. The method, then: Epoxy-janthitrem I, lolitrem B, and the related indole-diterpene, paxilline were administered by intraperitoneal injection as DMSO/water solutions (9:1, 50 μL) into mice (Swiss, female, weight 25+3 g). Control mice were injected with the solvent alone. Dose rates which induce an acceptable maximum tremor response are well established for lolitrem B (2 mg/kg; Gallagher and Hawkes, 1986) and paxilline (6 mg/kg; Miles, et al., 1992).
Groups of four mice were used for each treatment group. All animal manipulations were approved by the
AgResearch Ruakura (Hamilton) Animal Ethics Committee established under the Animal Protection (code of ethical conduct) Regulations Act, 1987 (New Zealand). Tremor score was rated 1-5 on the basis of a visual rating scale using well established protocols (Gallagher and Hawkes, 1985; Gallagher and Hawkes, 1986). Tremors were measured regularly until the mice had completely recovered.

Series [4] is described as follows: Analysis of porina diets for epoxy-janthitrem I (stability in diet). The settings on record: average. Type of series: physicochemical. The method, then: (§1) An agar-based semi-synthetic diet (Popay, 2001) without antimicrobials was prepared and epoxy-janthitrem I dissolved in 100 μL DMSO was added to 10 g of diet. Four concentrations of epoxy-janthitrem I were prepared (1, 2.5, 5, 10 μg/g wet weight) along with a DMSO control. Discs of diet (7 mm diam.) were taken and placed on top of the bark and the lids were replaced. The experiment was kept in the dark at 15° C. After 24 h, each diet was visually scored for feeding on a scale of 0-10 where 0=no feeding and 10=all diet consumed. The amount of webbing present was also scored on a scale of 0-5. The diet disc was replaced daily with fresh diet for 7 days. Each time diet was replaced, samples of the diet that the porina had fed on were taken as well as a sample of the fresh diet to analyse for epoxy-janthitrem I. Porina were reweighed at the completion of the trial.

Series [5] has as its system Porina (Wiseana cervinata) larvae. In words: Porina bioassay of purified epoxy-janthitrem I in semi-synthetic diet (Example 4). Type of series: in vivo. The method, then: Six week-old porina (W. cervinata) larvae reared from eggs (Popay, 2001) were starved overnight and then weighed individually. Larvae were assigned to replicates so that all larvae within a replicate were of a similar weight but randomised amongst treatments. The 20 replicate larvae per treatment were each placed in specimen containers (75 mL) half filled with commercially available fine bark chips.
as §1
The feeding score data were normalised by square root transformation before a repeated measures analysis was carried out using REML with treatment and date as factors. The daily webbing score and weight change of larvae over 7 days were analysed using ANOVA, blocked by replicate, to make pairwise comparisons for each concentration with the solvent control at each date.

On to `CC(C)=CCOC(C)(C)C1OC2CC[C@]3(C)[C@@]4(C)c5[nH]c6cc7c(cc6c5CC4CC[C@@]3(O)C23O[C@H]3[C@@H]1O)CC1C7=CC(C)(C)OC1(C)C` (stereo partly drawn) [epoxy-janthitrem III], for which, in series [1], the “inhibition of feeding at the highest concentration” value was “little inhibition of feeding”. Besides, the “peak tremor score (comparison among epoxy-janthitrems)” value (from here on “peak tremor score”) in the series with mice (Swiss, female) [2] is recorded as “lowest peak tremor scores”.

Take `CC(C)=CC1O[C@@H]2C(OC3CC[C@]4(C)[C@@]5(C)c6[nH]c7cc8c(cc7c6CC5CC[C@@]4(O)C34O[C@@H]24)CC2C8=CC(C)(C)OC2(C)C)C(C)(C)O1` (stereo partly drawn) [epoxy-janthitrem II]: the “Weight change of larvae” value in series [1] (2.5 μg/g) was “net weigt loss”. In addition, the Mortality of larvae entry in series [1] (2.5 μg/g) and in series [1] (10 μg/g) was “high” in each case. Also, the “average diet consumption with increasing concentration” value in series [1] was “decreased with increasing epoxy-janthitrem concentration”. The “time of peak tremorgenicity” value with mice (Swiss, female) [2] (EJ I 13.5, EJ II 14.2, EJ III 17.2, EJ IV 16.5, EJ triol 16.2 mg/kg) was 9 hours post administration.

With `CC(=O)O[C@@H]1C(C(C)(C)OCC=C(C)C)OC2CC[C@]3(C)[C@@]4(C)c5[nH]c6cc7c(cc6c5CC4CC[C@@]3(O)C23O[C@@H]13)CC1C7=CC(C)(C)OC1(C)C` (stereo partly drawn) [epoxy-janthitrem IV], the “inhibition of feeding at the highest concentration” value in series [1] was “little inhibition of feeding”.

`CC(=O)O[C@@H]1C(C(C)(C)O)OC2CC[C@]3(C)[C@@]4(C)c5[nH]c6cc7c(cc6c5CC4CC[C@@]3(O)C23O[C@@H]13)CC1C7=CC(C)(C)OC1(C)C` (stereo partly drawn) [epoxy-janthitrem I]: the “Weight change of larvae” value in series [1] (2.5 μg/g) is on record as “net weigt loss”; in series [5] (1-10 ppm in diet, 7 days), “continued to decline with increasing concentration”. Besides, the Mortality of larvae entry in series [1] (2.5 μg/g) and in series [1] (10 μg/g) was “high” in each case. For the same compound, the “average diet consumption with increasing concentration” value in series [1] is on record as “decreased with increasing epoxy-janthitrem concentration”. Besides, the “effect on consumption at the lowest dose” value in series [1] (lowest dose (1 μg/g wet weight)) is “substantial inhibitory effect”. Moreover, the “peak tremor score” value in the series on mice (Swiss, female) [2] is reported as “significantly greater than that observed for any of the other epoxy-janthitrems”. For the same compound, in the series on mice (Swiss, female) [3] (8 mg/kg intraperitoneal), the tremor response entry is “only a low tremor response”. The “concentration of epoxy-janthitrem I in diet relative to expected” value in series [4] (analysed at time zero) is recorded as 98%. In addition, in series [4] (diets after 24 h), the “epoxy-janthitrem I remaining in diet, % of the starting concentration” value came to 81%. For the same compound, in series [5] (1 ppm in diet, P<0.05 vs solvent control), the “% gain in weight” value worked out at 51.1%. The “feeding score vs solvent control” value was “did not differ significantly from the solvent control” in series [5] (1 ppm in diet, apart from the first day); “consistent reduction in feeding score for the first 6 days” in series [5] (2.5 ppm in diet); “feeding was strongly inhibited” in series [5] (5 ppm in diet, entire period of the bioassay); “feeding was strongly inhibited” in series [5] (10 ppm in diet, entire period of the bioassay). Further, the “Weight gain of larvae relative to the solvent control” value in series [5] (all concentrations except 1 ppm) is “significantly reduced”. Further, the “in planta concentration that will reliably reduce larval feeding” value in series [5] (extrapolated from dry weight of diet (about ten times wet weight concentrations)) was no less than 25 ppm. Moreover, the “Survival of larvae during the experiment” value in series [5] (treatments containing epoxy-janthitrem I (1, 2.5, 5, 10 μg/g wet weight), 7 days) was found to be 100%.

For the compound `CC1(C)C=C2c3cc4[nH]c5c(c4cc3CC2C(C)(C)O1)CC1CC[C@@]2(O)C34O[C@H]3[C@H](O)C(C(C)(C)O)OC4CC[C@]2(C)[C@@]51C` (stereo partly drawn) [epoxy-janthitriol], the “average diet consumption with increasing concentration” value in series [1] is recorded as “decreased with increasing epoxy-janthitrem concentration”. In addition, the “peak tremor score” value in the series with mice (Swiss, female) [2] is “lowest peak tremor scores”.

Take `CC(C)(O)C1OC2CC[C@@]3(C)[C@@](O)(CCC4Cc5c([nH]c6ccccc56)[C@@]43C)C2=CC1=O` (stereo partly drawn) [paxilline, Paxilline]: in the series with mice (Swiss, female) [3] (ip, paxilline 6 mg/kg), the “time of tremor peak” value is 30 mins post-dosing and the “time to complete recovery” value is on record as no more than 6 hours post-dosing.
